Measurements as given in PubChem BioAssay (NCI).
Several values for one entry are separate records, joined by “and”; a condition that tells them apart may be missing. Equal entries are not always repeated.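 All cell lines were grown in 96-well plates and treated with compound for 48 hours. The concentration for 50% growth inhibition is given as GI50. At the TGI there is no net growth.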

How the values were obtained:
Experiment in all cases: growth of human tumour cells (NCI), 48 h; in the data active = GI50 below about 0.43 µM; inactive = the rest
786-0 renal = system: 786-0 renal
A498 renal = system: A498 renal
A549 NSCLC = system: A549 NSCLC
ACHN renal = system: ACHN renal
CAKI-1 renal = system: CAKI-1 renal
CCRF-CEM leukemia = system: CCRF-CEM leukemia
COLO 205 colon = system: COLO 205 colon
DU-145 prostate = system: DU-145 prostate
HCC-2998 colon = system: HCC-2998 colon
HCT-116 colon = system: HCT-116 colon
HCT-15 colon = system: HCT-15 colon
HL-60(TB) leukemia = system: HL-60(TB) leukemia
HOP-62 NSCLC = system: HOP-62 NSCLC
HT29 colon = system: HT29 colon
IGROV1 ovarian = system: IGROV1 ovarian
K-562 leukemia = system: K-562 leukemia
KM12 colon = system: KM12 colon
LOX IMVI melanoma = system: LOX IMVI melanoma
M14 melanoma = system: M14 melanoma
MALME-3M melanoma = system: MALME-3M melanoma
MCF7 breast = system: MCF7 breast
MDA-MB-231 breast = system: MDA-MB-231 breast
MDA-MB-435 = system: MDA-MB-435
MDA-N = system: MDA-N
MOLT-4 leukemia = system: MOLT-4 leukemia
NCI-H226 lung = system: NCI-H226 lung
NCI-H23 lung = system: NCI-H23 lung
NCI-H460 lung = system: NCI-H460 lung
NCI-H522 lung = system: NCI-H522 lung
NCI/ADR-RES ovarian = system: NCI/ADR-RES ovarian
OVCAR-3 ovarian = system: OVCAR-3 ovarian
OVCAR-4 ovarian = system: OVCAR-4 ovarian
OVCAR-5 ovarian = system: OVCAR-5 ovarian
PC-3 prostate = system: PC-3 prostate
RPMI-8226 leukemia = system: RPMI-8226 leukemia
RXF 393 renal = system: RXF 393 renal
SF-268 CNS = system: SF-268 CNS
SF-295 CNS = system: SF-295 CNS
SF-539 CNS = system: SF-539 CNS
SK-MEL-2 melanoma = system: SK-MEL-2 melanoma
SK-MEL-28 melanoma = system: SK-MEL-28 melanoma
SK-MEL-5 melanoma = system: SK-MEL-5 melanoma
SK-OV-3 ovarian = system: SK-OV-3 ovarian
SN12C renal = system: SN12C renal
SNB-75 CNS = system: SNB-75 CNS
SW-620 colon = system: SW-620 colon
TK-10 renal = system: TK-10 renal
U251 CNS = system: U251 CNS
UACC-257 melanoma = system: UACC-257 melanoma
UACC-62 melanoma = system: UACC-62 melanoma
UO-31 renal = system: UO-31 renal

Cc1nn(-c2ccccc2)c2c1CC(=O)Nc1ccccc1-2
7540 nM and 2490 nM: TGI (HCC-2998 colon)
inactive: GI50 (786-0 renal) 570 nM | GI50 (A549 NSCLC) 764 nM | GI50 (ACHN renal) 840 nM | GI50 (LOX IMVI melanoma) 431 nM | GI50 (MDA-MB-231 breast) 578 nM | GI50 (NCI-H226 lung) 465 nM | GI50 (SF-268 CNS) 623 nM | GI50 (UO-31 renal) 1110 nM
4840 nM and 1990 nM: TGI (COLO 205 colon)
73400 nM: TGI (UACC-62 melanoma)
3060 nM: TGI (SF-295 CNS)
45200 nM: TGI (SK-MEL-5 melanoma)
602 nM: TGI (MDA-MB-435)
43800 nM: TGI (SK-OV-3 ovarian)
3730 nM: TGI (NCI/ADR-RES ovarian)
9190 nM and 1990 nM: TGI (MOLT-4 leukemia)
456 nM: TGI (RPMI-8226 leukemia)
active: GI50 (A498 renal) 27 nM | GI50 (CAKI-1 renal) 346 nM | GI50 (CCRF-CEM leukemia) 112 nM | GI50 (COLO 205 colon) 318 nM | GI50 (DU-145 prostate) 355 nM | GI50 (HCT-116 colon) 322 nM | GI50 (HCT-15 colon) 145 nM | GI50 (HL-60(TB) leukemia) 20.3 nM | GI50 (HOP-62 NSCLC) 384 nM | GI50 (HT29 colon) 90.6 nM | GI50 (IGROV1 ovarian) 397 nM | GI50 (K-562 leukemia) 44 nM | GI50 (KM12 colon) 88.8 nM | GI50 (M14 melanoma) 188 nM | GI50 (MCF7 breast) 78.8 nM | GI50 (MOLT-4 leukemia) 84.3 nM | GI50 (NCI-H23 lung) 357 nM | GI50 (NCI-H460 lung) 381 nM | GI50 (NCI-H522 lung) 170 nM | GI50 (OVCAR-3 ovarian) 80.5 nM | GI50 (PC-3 prostate) 279 nM | GI50 (RPMI-8226 leukemia) 82.6 nM | GI50 (SF-539 CNS) 173 nM | GI50 (SK-MEL-2 melanoma) 387 nM | GI50 (SK-MEL-28 melanoma) 357 nM | GI50 (SK-MEL-5 melanoma) 87.9 nM | GI50 (SK-OV-3 ovarian) 332 nM | GI50 (SNB-75 CNS) 210 nM | GI50 (SW-620 colon) 152 nM | GI50 (U251 CNS) 282 nM | GI50 (UACC-257 melanoma) 273 nM | GI50 (UACC-62 melanoma) 158 nM
470 nM: TGI (MDA-N)
5850 nM: TGI (RXF 393 renal)
624 nM and 222 nM: GI50 (HCC-2998 colon)
2920 nM and 552 nM: TGI (OVCAR-3 ovarian)
721 nM: TGI (K-562 leukemia)
432 nM and 87.2 nM: GI50 (MALME-3M melanoma)
> 100000 nM: TGI (786-0 renal) | TGI (A549 NSCLC) | TGI (ACHN renal) | TGI (CAKI-1 renal) | TGI (DU-145 prostate) | TGI (HCT-15 colon) | TGI (HOP-62 NSCLC) | TGI (IGROV1 ovarian) | TGI (KM12 colon) | TGI (LOX IMVI melanoma) | TGI (M14 melanoma) | TGI (MALME-3M melanoma) | TGI (MCF7 breast) | TGI (MDA-MB-231 breast) | TGI (NCI-H226 lung) | TGI (NCI-H23 lung) | TGI (NCI-H460 lung) | TGI (OVCAR-4 ovarian) | TGI (OVCAR-5 ovarian) | TGI (SF-268 CNS) | TGI (SK-MEL-2 melanoma) | TGI (SK-MEL-28 melanoma) | TGI (SN12C renal) | TGI (SW-620 colon) | TGI (U251 CNS) | TGI (UACC-257 melanoma) | TGI (UO-31 renal)
3750 nM and 593 nM: TGI (NCI-H522 lung)
7800 nM and 855 nM: TGI (SF-539 CNS)
92200 nM: TGI (TK-10 renal)
